Molecular target: T1, CgFMNAT (Nakaseomyces glabratus, UniProt Q6FNA9)
T1 sequence (Q6FNA9 1-304): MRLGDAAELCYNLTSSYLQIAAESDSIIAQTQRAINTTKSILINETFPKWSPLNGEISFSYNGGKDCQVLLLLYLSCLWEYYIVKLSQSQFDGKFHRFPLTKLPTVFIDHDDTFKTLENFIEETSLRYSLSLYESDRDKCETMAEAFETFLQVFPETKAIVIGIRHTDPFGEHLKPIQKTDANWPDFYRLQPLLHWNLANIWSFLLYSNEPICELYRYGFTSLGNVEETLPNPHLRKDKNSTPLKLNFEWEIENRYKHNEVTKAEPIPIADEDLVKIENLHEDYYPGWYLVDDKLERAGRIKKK

## O=P(O)(O)OP(=O)(O)O [pyrophosphate]
  X-ray crystal structure of product ternary complex (1.35 Å): the densities for both products FAD and pyrophosphate (PPi) are well defined

— PMC2928223 (Journal of molecular biology, 2009)
